From patent US20190076392A1, “METHODS FOR TREATING CANCER” (Boston Biomedical, Inc., priority 2016, published 2019)
pIC50: −log10 of the molar value.

Assays:
[1] = system: human pancreatic adenocarcinoma (Panc-1); assay: Human pancreatic adenocarcinoma (Panc-1) xenograft in immunosuppressed mice; assay type: in vivo
From the text: FIG. 6 show an exemplary effect of 2-acetylnaphtho[2,3-b]furan-4,9-dione, gemcitabine (Gemzar), and the combination of 2-acetylnaphtho[2,3-b]furan-4,9-dione and gemcitabine treatment on tumor volume in an xenograft tumor mouse model according to certain embodiments of the present disclosure.
The effects of 2-acetylnaphtho[2,3-b]furan-4,9-dione, a compound of formula (I), gemcitabine, and a combination of 2-acetylnaphtho[2,3-b]furan-4,9-dione and gemcitabine were studied. Specifically, immunosuppressed mice with established human pancreatic adenocarcinoma (Panc-1) were treated with vehicle control, 2-acetylnaphtho[2,3-b]furan-4,9-dione (100 mg/kg, PO, bid), gemcitabine (Gemzar, 80 mg/kg, IV, q3d), or the combination of 2-acetylnaphtho[2,3-b]furan-4,9-dione and gemcitabine. Tumor size was evaluated periodically during treatment. Each point represents the mean+SEM of five tumors.

[2] = system: Paca-2 human pancreatic cancer; assay: Human PDAC xenograft tumor (Paca-2) in nude mice; assay type: in vivo
From the text: FIGS. 5A and 5B show an exemplary effect of a 2-acetylnaphtho[2,3-b]furan-4,9-dione and gemcitabine treatment on pancreatic ductal adenocarcinoma (PDAC) in an xenograft tumor mouse model according to certain embodiments of the present disclosure.
The effects of 2-acetylnaphtho[2,3-b]furan-4,9-dione, a compound of formula (I), on a human PDAC xenograft tumor (Paca-2) in nude mice were studied. Specifically, immunosuppressed mice with Paca-2 human pancreatic cancer were given 2-acetylnaphtho[2,3-b]furan-4,9-dione (20 mg/kg) or vehicle control IP daily or gemcitabine (120 mg/kg) or vehicle control IP every 3 days. Tumor size was evaluated periodically during treatment. Each point represents the mean+SEM of five tumors.

[3] = system: STAT3 pathway; conditions: according to U.S. Pat. No. 8,877,803; read-out: STAT3 pathway activity, cellular IC50; cited from earlier work
[4] = Phase Ib study in mPDAC patients, safety and adverse events; assay type: in vivo, human; conditions: in combination with gemcitabine and nab-paclitaxel
From the text: The effects of 2-acetylnaphtho[2,3-b]furan-4,9-dione, a compound of formula (I), in combination with gemcitabine and nab-paclitaxel in patients with metastatic pancreatic ductal adenocarcinoma (mPDAC) were studied in a Phase Ib extension, open label, multi-center study.
In that clinical study, the safety, tolerability and the recommended Phase II dose (RP2D), PK profile, and signs of anti-cancer activity of 2-acetylnaphtho[2,3-b]furan-4,9-dione in combination with nab-paclitaxel and gemcitabine were assessed in adult patients with metastatic pancreatic cancer. In each treatment cycle, 2-acetylnaphtho[2,3-b]furan-4,9-dione was administered at 240 mg BID for 4 weeks in combination with nab-paclitaxel 125 mg/m^2 and gemcitabine 1000 mg/m^2 administered weekly for 3 out of the 4 weeks. The treatment continued in 28-day cycles.
The patients received continuous oral administration of BBI-608 twice daily in 28 day cycles. A standard gemcitabine and nab-paclitaxel regimen was administered on days 1, 8 and 15 of every 28 day study cycle. Specifically, BBI-608 was administered at 240 mg BID in combination with gemcitabine 1000 mg/m^2 and nab-paclitaxel 125 mg/m^2 administered weekly for 3 out every 4 weeks until progression of disease, unacceptable toxicity, or another discontinuation criterion was met. Pharmacokinetics and pharmacodynamics were evaluated and objective tumor response was assessed every 8 weeks using Response Evaluation Criteria In Solid Tumors (RECIST 1.1).

[5] = system: β-CATENIN; assay: Immunofluorescence staining of xenograft tumor cells for β-CATENIN; assay type: in vivo; conditions: human colon cancer xenograft tumor (SW480) in nude mice; treated vs control
From the text: (§1) The effects of 2-acetylnaphtho[2,3-b]furan-4,9-dione, a compound of formula (I), to tumor cells were studied by analyzing the tumor cells treated with the compound or without the compound (control) with immunofluorescence staining using antibodies specific for human p-STAT3 and 13-CATENIN.

[6] = biological target: T1, human p-STAT3 (Homo sapiens, UniProt P40763); assay: Immunofluorescence staining of xenograft tumor cells for p-STAT3; assay type: in vivo; conditions: human colon cancer xenograft tumor (SW480) in nude mice; treated vs control
T1 construct: p-STAT3 and β-CATENIN protein levels in human colon cancer xenograft tumor (SW480) in nude mice; endogenous in cells; host or cells: SW480 human colon cancer xenograft tumor in nude mice
From the text: as §1

[7] = system: STAT3; assay: Clinical trials, overall survival by STAT3/pSTAT3 level; assay type: in vivo, human; conditions: patients with higher expression levels of STAT3 (pSTAT3 before treatment), at least in CRC patients
From the text: Thus, the higher the level of pSTAT3 found in a cancer patient before treatment, at least in CRC patients, the higher the overall survival (OS) upon administering a treatment comprising at least one compound of formula (I).

T1 sequence (P40763 whole entry): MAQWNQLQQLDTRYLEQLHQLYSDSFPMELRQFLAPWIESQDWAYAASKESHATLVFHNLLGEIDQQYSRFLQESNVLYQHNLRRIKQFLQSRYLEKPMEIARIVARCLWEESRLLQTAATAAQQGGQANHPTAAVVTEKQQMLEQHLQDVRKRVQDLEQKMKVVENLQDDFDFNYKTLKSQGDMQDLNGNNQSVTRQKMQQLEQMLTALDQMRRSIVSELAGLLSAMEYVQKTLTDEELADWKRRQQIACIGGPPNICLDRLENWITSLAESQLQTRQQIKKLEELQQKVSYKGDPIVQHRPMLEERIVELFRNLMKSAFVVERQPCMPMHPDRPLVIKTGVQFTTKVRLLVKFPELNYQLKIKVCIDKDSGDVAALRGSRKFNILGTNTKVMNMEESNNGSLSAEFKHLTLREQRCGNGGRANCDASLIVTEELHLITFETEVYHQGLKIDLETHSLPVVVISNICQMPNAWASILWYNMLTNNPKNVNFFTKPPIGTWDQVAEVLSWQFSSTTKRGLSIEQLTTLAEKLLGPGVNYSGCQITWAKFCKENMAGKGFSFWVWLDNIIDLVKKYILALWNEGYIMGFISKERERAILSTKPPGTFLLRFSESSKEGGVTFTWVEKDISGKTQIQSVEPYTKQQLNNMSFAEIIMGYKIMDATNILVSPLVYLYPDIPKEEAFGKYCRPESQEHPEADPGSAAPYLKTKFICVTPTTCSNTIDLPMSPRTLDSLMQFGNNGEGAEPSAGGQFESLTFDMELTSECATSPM

Compound	tumor growth (tumor size) ([1]; Gemzar, 80 mg/kg, IV, q3d)	tumor growth (tumor size) ([2]; 120 mg/kg IP every 3 days)	pIC50 [3]	grade 3 AEs related to napabucasin, number of patients [4]	grade 3 dehydration related to napabucasin, number of patients [4]	grade 3 diarrhea related to napabucasin, number of patients [4]	grade 3 fatigue related to napabucasin, number of patients [4]	grade 3 hypokalemia related to napabucasin, number of patients [4]	grade 3 nausea related to napabucasin, number of patients [4]	most common adverse events (AEs) related to napabucasin [4]	tumor growth (tumor size) ([1]; 100 mg/kg, PO, bid)	tumor cells with positive staining for β-CATENIN [5]	tumor cells with positive staining for human p-STAT3 [6]	tumor growth (tumor size) ([2]; 20 mg/kg IP daily)	overall survival after treatment [7]
Nc1ccn([C@@H]2O[C@H](CO)[C@@H](O)C2(F)F)c(=O)n1 [gemcitabine, reference compound]	certain effects in inhibiting tumor growth	only a marginal effect on tumor growth	–	–	–	–	–	–	–	–	–	–	–	–	–
CC(=O)c1cc2c(o1)C(=O)c1ccccc1C2=O [2-acetylnaphtho[2,3-b]furan-4,9-dione]	–	–	~6.60	9 patients	1 patient	1 patient	5 patients	1 patient	1 patient	grade 1 diarrhea, abdominal pain, nausea, and fatigue	certain effects in inhibiting tumor growth	effectively inhibited	effectively inhibited	effective at inhibiting tumor growth	prolonged overall survival
